Entries after “also recorded” stand apart in the source; their conditions may differ. Some results are limits rather than exact numbers.

We go through three compounds from paper PMC12656565, “In Vitro and Ultrastructural Evaluation of the Cytotoxic and Antileishmanial Activities of Thiosemicarbazone Compounds Against Promastigotes and Axenic Amastigotes of Leishmania infantum” (Tropical Medicine and Infectious Disease, 2025).

The test system of series [1] is L. infantum promastigote cells. Nature of the series: Mitochondrial membrane potential (Rhodamine 123, flow cytometry). Type of series: cell-based, Leishmania infantum. Conditions: for Variability Index (VI), range: range over the tested concentrations (1× and 2× IC50; H2O2 control). Here is the method: To evaluate the effects of compounds on the mitochondrial membrane potential (ΔΨm) of Leishmania infantum, the cationic probe Rhodamine 123 (Rod 123) was used through quantitative flow cytometry analysis. […] After incubation, cells were centrifuged at 3000× g for 5 min, and supernatants discarded. […] Hydrogen peroxide (H2O2) at 1 μM was used as positive control, previously described in the literature as an inducer of mitochondrial potential loss. Cells were analyzed by flow cytometry on the FACSCalibur equipment (Becton & Dickinson, San José, CA, USA), with excitation at 488 nm and detection at 505/534 nm. Fifty thousand events per sample were acquired. Data were expressed as percentage of cells stained with Rhodamine 123 for each tested condition. Fluorescence variation was quantified by Variation Index (VI), calculated by the equation: VI = (MT − MC)/MC, where MT corresponds to the median fluorescence of treated cells and MC to the median of control cells (untreated).

Series [2] deals with L. infantum promastigote forms. Nature of the series: Ultrastructural analysis (SEM/TEM) of promastigote forms. Type of series: cell-based, Leishmania infantum. Conditions: promastigotes, 1× and 2× IC50 (Amphotericin B 1× IC50), 72 h. Here is the method:
Ultrastructural analysis of promastigote and axenic amastigote forms of L. infantum was performed as described by Silva et al., with adaptations. Promastigote and amastigote forms were cultured in modified Schneider’s medium supplemented with 10% fetal bovine serum (FBS), in a BOD incubator at 26 °C and 32 °C, respectively, until reaching the stationary growth phase (72 h). After adjusting cell concentration to 1 × 10^7 cells/mL, samples were incubated with compounds LT-73, LT-75, and amphotericin B at concentrations corresponding to the IC50 and 2× IC50 previously determined, as well as a DMSO control (1% diluted), for 72 h. During incubation, daily microscopic monitoring of cell morphology was performed.
After this period, cells were washed with PBS (phosphate-buffered saline) and fixed in a solution containing 2.5% glutaraldehyde and 4% formaldehyde in 0.1 M phosphate buffer (pH 7.4) for 24 h at 4 °C. For transmission electron microscopy (TEM), cells were post-fixed in 1% osmium tetroxide (OsO4) for 2 h in 0.1 M phosphate buffer (pH 7.2), dehydrated in increasing acetone series (30%, 50%, 70%, 90%, and 3× 100%), embedded in EPON resin, and subjected to ultrathin sectioning using an ultramicrotome. Sections were contrasted with 2% uranyl acetate for 30 min and 2.5% lead citrate for 10 min, then analyzed using a Tecnai G2 Spirit TEM (FEI).
For scanning electron microscopy (SEM), after primary fixation, cells were adhered to coverslips pre-treated with poly-L-lysine for 30 min. Then, cells were washed three times with 0.1 M phosphate buffer (pH 7.2), post-fixed in 1% OsO4 for 2 h, dehydrated in increasing ethanol series (30%, 50%, 70%, 90%, and 3× 100%), subjected to critical point drying using an HCP-2 device (Hitachi (Tokyo, Japan)), and gold-coated (20 nm) using a JFC-1100 device ((JEOL Ltd., Tokyo, Japan)). […]
(§1) All images were acquired under standardized laboratory protocols. A minimum of 50 parasites per condition were analyzed by two blinded investigators and no visible precipitation or crystallization occurred during fixation.

Series [3] relates to L. infantum axenic amastigotes. Nature of the series: Ultrastructural analysis (SEM/TEM) of axenic amastigote forms. Type of series: cell-based, Leishmania infantum. Particulars: 1× and 2× IC50 (Amphotericin B 1× IC50), 72 h. Here is the method:
Differentiation of L. infantum promastigote forms into axenic amastigote forms was carried out according to the protocol by Oliveira et al., with adaptations. Stationary-phase promastigotes (72 h) were cultured in modified Schneider’s Drosophila medium supplemented with 10% fetal bovine serum (FBS) at 26 °C. Cells were collected by centrifugation (3000× g for 10 min at 4 °C), washed three times with PBS (150 mM NaCl, 20 mM phosphate buffer, pH 7.2), and adjusted to 1 × 10^6 cells/mL. Differentiation was induced in acidified Schneider’s medium (pH 5.5), supplemented with 2.5% FBS, incubated at 32 °C for seven days.
Axenic amastigotes were obtained from stationary-phase promastigotes of L. infantum following standard differentiation protocols. The cultures were maintained under controlled conditions and monitored daily by optical microscopy. Morphological observations confirmed the transition from elongated promastigotes to rounded amastigote-like forms with internalized or absent flagella. […] Cultures were regularly examined for microbial contamination, and no evidence of bacterial or fungal contamination was detected during the differentiation or experimental periods. Axenic amastigotes were exposed to compounds LT-73 and LT-75 at concentrations corresponding to the IC50 and 2× IC50, previously determined for promastigotes based on leishmanicidal activity, for analysis by scanning (SEM) and transmission electron microscopy (TEM). […]
After this period, cells were washed with PBS (phosphate-buffered saline) and fixed in a solution containing 2.5% glutaraldehyde and 4% formaldehyde in 0.1 M phosphate buffer (pH 7.4) for 24 h at 4 °C. […] Sections were contrasted with 2% uranyl acetate for 30 min and 2.5% lead citrate for 10 min, then analyzed using a Tecnai G2 Spirit TEM (FEI). […]
as §1

Series [4] has as its system J774.A1 macrophages. More on the design: method as in PMID 33590474. Conditions: highest concentration tested 75 µM, previously determined in collaboration with Jacob et al., ref [20]; cited from earlier work.
Series [5] has as its system J774 macrophages and Vero cells. On the set-up: method as in ref [21] Aliança et al. Conditions: ref [21] Aliança et al.; cited from earlier work.
For a further series, the system named is peritoneal macrophages. On the set-up: method as in ref [23] Queiroz et al. Particulars: ref [23] Queiroz et al.; cited from earlier work.
The subject of series [6] is J774.A1 macrophages. Nature of the series: Cytokine dosage (CBA) in supernatants of uninfected macrophages. Type of series: cell-based, Mouse. Particulars: 1× and 2× CC50, 72 h. The method, then:
J774.A1 macrophage lineage cells were cultured in 96-well polystyrene plates containing DMEM medium supplemented with 10% FBS. Cells were incubated with the following concentrations: 1× CC50 and 2× CC50 of compounds LT-73 and LT-75 and amphotericin B, as well as 1% DMSO diluent solution as control, for 72 h. The cells used in these assays were not infected with Leishmania infantum, allowing the evaluation of cytokine modulation and cytotoxicity in uninfected macrophages. After cultivation, 100 µL of culture supernatants were collected and immediately stored at −20 °C for later use in CBA assays (Cytometric Bead Array-BD Biosciences, BD Biosciences, San Jose, CA, USA). This assay utilized a mixture of […] polystyrene beads with different fluorescence intensities, coated with specific antibodies for quantification of cytokines IFN-γ, TNF, IL-10, IL-6, IL-4, IL-2, and IL-17a present in sample supernatants. Cytokine levels were quantified using the BD Cytometric Bead Array (CBA) Mouse Th1/Th2/Th17 kit (Cat. No. 560485, BD Biosciences, San Jose, CA, USA) and analyzed on a BD FACSCalibur™ Flow Cytometer with BD CellQuest PRO Software (BD Biosciences; version 5.1 by the facility). Results are expressed in pg/mL based on standard curves provided by the manufacturer.

`C[C@@H]1[C@H](O)[C@@H](C)/C=C/C=C/C=C/C=C/C=C/C=C/C=C/[C@H](O[C@@H]2O[C@H](C)[C@@H](O)[C@H](N)[C@@H]2O)C[C@@H]2O[C@](O)(C[C@@H](O)C[C@@H](O)[C@H](O)CC[C@@H](O)C[C@@H](O)CC(=O)O[C@H]1C)C[C@H](O)[C@H]2C(=O)O` [Amphotericin B, reference compound]: the “Mean (Rho 123 fluorescence)” value in series [1] (1× IC50, 72 h) turned out to be 213 ± 1; in series [1] (2× IC50, 72 h), 193 ± 3. In addition, the “Variation (Variation Index, VI = (MT − MC)/MC)” value in series [1] (1× IC50, 72 h) is −0.70 ± 0.01; in series [1] (2× IC50, 72 h), −0.73 ± 0.02. Besides, the “Variability Index (VI), range” value in series [1] is reported as −0.018 to −0.73. Further, the TEM ultrastructural alterations entry was “membrane rupture, chromatin condensation, and mitochondrial swelling” in series [2]; “plasma membrane rupture, alterations in the kinetoplast, and mitochondrial swelling” in series [3]. The CC50 with J774.A1 macrophages [4] was 14 ± 0.3 µM. Besides, the results for the cytotoxicity (in series [5]; in the series with peritoneal macrophages) were 74.7 µM and 74.86 µM, respectively.
Regarding `S=C(N/N=C/c1c[nH]c2ncccc12)Nc1ccccc1` [LT-73], the “Mean (Rho 123 fluorescence)” value came to 658 ± 9 in series [1] (1× IC50, 72 h) and 697 ± 7 in series [1] (2× IC50, 72 h). Besides, the “Variation (Variation Index, VI = (MT − MC)/MC)” value in series [1] (1× IC50, 72 h) is −0.07 ± 0.05; in series [1] (2× IC50, 72 h) it was −0.02 ± 0.03. Further, the “Mitochondrial membrane depolarization (in words)” value in series [1] (1× and 2× IC50, 72 h) was “depolarization of the mitochondrial membrane; also recorded: induced a alteration in Δψm”. Also, the “Variability Index (VI), range” value in series [1] is −0.02 to −0.07. The IFN-γ production entry in the series with J774.A1 macrophages [6] is “no cytokine production was observed”. In the series on J774.A1 macrophages [6], the IL-6 secretion result is on record as “IL-6 production was observed only at the CC50 concentration”. The TEM ultrastructural alterations result is “disorganization of the plasma membrane, mitochondrial swelling, chromatin condensation, and the presence of numerous vacuoles” in series [2]; “significant alterations in the plasma membrane and flagellar pocket, chromatin condensation, mitochondrial swelling, and an increased number of intracellular vacuoles” in series [3]. Moreover, the CC50 in the series on J774.A1 macrophages [4] was above 75 µM.
For `N#Cc1ccc2[nH]cc(/C=N/NC(=S)Nc3ccc(Cl)cc3)c2c1` [LT-75], in series [1] (1× IC50, 72 h), the “Mean (Rho 123 fluorescence)” value was 1425 ± 106 and the “Variation (Variation Index, VI = (MT − MC)/MC)” value turned out to be 1 ± 0.23. In series [1] (2× IC50, 72 h), the “Mean (Rho 123 fluorescence)” value is 1000 ± 21 and the “Variation (Variation Index, VI = (MT − MC)/MC)” value amounted to 0.41 ± 0.05. In the series on J774.A1 macrophages [6], the IFN-γ production entry is reported as “induced the production of the cytokine IFN-γ” and the IL-6 secretion entry is recorded as “discrete elevation detected at 1× LT-75”. Moreover, the TEM ultrastructural alterations entry in series [2] is “extensive damage to the plasma membrane and cytoskeleton”. Moreover, in series [3], the TEM ultrastructural alterations result is “severe damage to the plasma membrane and cytoskeleton”. Also, the CC50 with J774.A1 macrophages [4] is above 75 µM.
